Nine compounds from PubChem BioAssay (NCI) can be followed below.

Assay in all cases: growth of human tumour cells (NCI), 48 h
The test system of experiment [1] is CCRF-CEM leukemia.
Experiment [2] relates to UO-31 renal.
Experiment [3] deals with NCI-H23 lung.
The test system of experiment [4] is OVCAR-8 ovarian.
Experiment [5] concerns HOP-92 NSCLC.
The subject of experiment [6] is NCI/ADR-RES ovarian.
Experiment [7] relates to NCI-H522 lung.
In experiment [8] the test system is RPMI-8226 leukemia.
Experiment [9] relates to SF-268 CNS.
Experiment [10] concerns OVCAR-3 ovarian.

Each structure is given as a SMILES string.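 Values below derive from 48-hour exposures of cells grown in 96-well plates, with endpoints linearly interpolated between the two concentrations bracketing the appropriate inhibition level. Here, GI50 denotes the concentration required for 50% inhibition of growth. TGI denotes the concentration required for complete inhibition of growth.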

With `C[C@]12CCc3sc(NCCc4ccccc4)nc3C1=CC[C@@H]1[C@@H]2CC[C@]2(C)C(=O)CC[C@@H]12`, the GI50 in experiment [1] was 2.63 µM; in [2], 4.03 µM; in experiment [3] it was 5.03 µM; in experiment [4] it was 2.77 µM; in experiment [5] it was 2.75 µM; in [6], 2.31 µM. Besides, the GI50 in experiment [7] was 1.78 µM; in experiment [8], 1.79 µM; in [9], 4.62 µM; in experiment [10], 2.08 µM. The TGI is 40.4 µM in experiment [1]; 25.1 µM in [2]; more than 100 µM in [3]; more than 100 µM in experiment [4]; 9.1 µM in [5]; 7.52 µM in [6]. The TGI was 3.64 µM in experiment [7], 5.69 µM in experiment [8], more than 100 µM in [9] and 4.83 µM in experiment [10].

Turning to `COc1ccc(C2CC(C)(O)Oc3cc4c(cc32)OCO4)cc1` (stereo not given), the TGI was more than 82.8 µM in [1]; more than 100 µM in experiment [2]; more than 100 µM in [3]; more than 100 µM in [4]; 69.5 µM in experiment [5]; more than 78.2 µM in experiment [6]. The TGI in experiment [7] is 44.6 µM; in experiment [8], more than 100 µM; in experiment [9], more than 100 µM; in experiment [10] it was more than 100 µM.

As to `NC(=O)c1ccc(I)c(N=O)c1`, the GI50 in [1] was 40.5 µM; in experiment [2], 19.9 µM; in experiment [3] it was 51.7 µM; in experiment [4] it was 25.8 µM; in experiment [5] it was 67.1 µM; in experiment [6], 44.9 µM. The GI50 in experiment [7] is 21.4 µM; in experiment [8] it was 36.9 µM; in experiment [9], 62.1 µM; in experiment [10], 27.4 µM. Moreover, the TGI was more than 100 µM in [1]; 57.8 µM in experiment [2]; more than 100 µM in experiment [3]; 60.6 µM in experiment [4]; more than 100 µM in [5]; more than 100 µM in experiment [6]. The TGI in experiment [7] was 55.3 µM; in experiment [8], 88.7 µM; in [9] it was more than 100 µM; in experiment [10], 71.5 µM.

On to `Cc1cc(Cl)ccc1Nc1nc(C(F)(F)F)ccc1C(=O)N/N=C/c1ccc(Cl)cc1`, for which the GI50 in experiment [1] was 0.384 µM; in experiment [2], 1.5 µM; in experiment [3] it was 1.85 µM; in experiment [4], 3.16 µM; in experiment [5], 1.94 µM; in experiment [6], 2.16 µM. The GI50 in [7] is 2.23 µM; in experiment [8], 2.01 µM; in experiment [9] it was 1.35 µM; in experiment [10] it was 1.32 µM. The TGI in [1] was 3.39 µM; in experiment [2], 6.04 µM; in experiment [3] it was 6.48 µM; in experiment [4], more than 100 µM; in experiment [5], 6.85 µM; in experiment [6], 6.38 µM. The TGI was determined as 7.96 µM in experiment [7], 6.3 µM in experiment [8], 10.1 µM in [9] and 5.28 µM in experiment [10].

`COc1ccc2c(=O)cc(-c3ccncc3)oc2c1OC`: the TGI in experiment [1] is 71.1 µM; in [2], 67.6 µM; in experiment [3], more than 100 µM; in experiment [4], more than 100 µM; in [5], 55.2 µM; in experiment [6] it was more than 100 µM. The TGI in experiment [7] is more than 100 µM; in experiment [8], more than 100 µM; in experiment [9], 91.7 µM; in experiment [10], 64.8 µM.

On to `O=C(O)c1cc2ccc3ccccc3c2oc1=O`, for which the TGI in [1], in experiment [2], in experiment [3], in experiment [4], in experiment [5] and in [6] was more than 100 µM throughout. For the same compound, the TGI in [7], in [8], in [9] and in experiment [10] was more than 100 µM throughout.

For `CNC(=O)c1cccc2cc(Oc3ccnc4cc(OCC5(N)CC5)c(OC)cc34)ccc12`, the GI50 was 4.78 µM in experiment [1]; 2.57 µM in experiment [2]; 11.2 µM in experiment [3]; 8.77 µM in experiment [4]; 6.89 µM in [5]; 12.7 µM in [6]. Also, the GI50 is 8.94 µM in experiment [7], 12.9 µM in experiment [8], 6.01 µM in experiment [9] and 8.86 µM in experiment [10]. For the same compound, the TGI in experiment [1] amounted to 29.7 µM; in experiment [2], 8.16 µM; in experiment [3], 28.9 µM; in experiment [4] it was 27.4 µM; in [5], 21 µM; in experiment [6], 31.9 µM. For the same compound, the TGI worked out at 25.6 µM in experiment [7], 39.7 µM in experiment [8], 24.2 µM in [9] and 23.7 µM in experiment [10].

As to `O=S(=O)(Nc1ccc(Br)c(Cl)c1)c1ccc(-c2cnc(C3CC3)o2)cc1`, the GI50 is 0.411 µM in experiment [1]; 1.11 µM in experiment [2]; 1.27 µM in [3]; 1.5 µM in experiment [4]; 0.487 µM in experiment [5]; 0.43 µM in experiment [6]. The GI50 was 0.262 µM in experiment [7], 0.585 µM in experiment [8], 1.56 µM in [9] and 0.37 µM in experiment [10]. The TGI was more than 45.9 µM in [1]; 13.6 µM in experiment [2]; 15.6 µM in experiment [3]; 21.4 µM in experiment [4]; 8.72 µM in experiment [5]; 6.86 µM in experiment [6]. Further, the TGI in experiment [7] worked out at 10.7 µM; in experiment [8], 64.8 µM; in [9], 23.5 µM; in experiment [10], 7.32 µM.

For the compound `COc1cc2oc3cc(=O)cc4oc(-c5ccccc5)cc(c2c2c1CCC(c1ccccc1)O2)c43` (stereo not given), the TGI in experiment [1], in experiment [2], in [3], in experiment [4], in experiment [5] and in experiment [6] was more than 100 µM in each case. For the same compound, the TGI in experiment [7] was more than 100 µM; in experiment [8] it was 20.9 µM; in [9] it was more than 100 µM; in experiment [10] it was 77.6 µM.
